In US4788178A, “Use of gonadoliberin and gonadoliberin agonists for the treatment of climacteric complaints” (Hoechst Aktiengesellschaft, priority 1984, dated 1988):

Experiments:
[1] = tested on: parathyroid hormone; conditions: after infusion of calcium; similar small doses; cited from earlier work
[2] = tested on: parathyroid hormone; assay: Regulating action of small doses of buserelin on parathyroid hormone in the plasma of rats; assay type: in vivo; conditions: young female rats with a high level of parathyroid hormone
Excerpt: Increased levels of parathyroid hormone are found in bone marrow in cases of osteoporosis (Klin. Wochenschr. 62, 129-132, 1984); parathyroid hormone has an osteolytic effect. In young female rats with a high level of parathyroid hormone, small doses of the gonadoliberin agonist buserelin reduced parathyroid hormone in the plasma, although a parathyroid hormone level which has been reduced by infusion of calcium is raised by similar doses of buserelin (see German Patent Application No. P 33 32 329.1). It is possible that this regulating action of buserelin on parathyroid hormone plays a part in the treatment of ostalgia and osteoporosis.

[3] = tested on: parathyroid hormone; assay: Action of buserelin to lower parathyroid hormone in blood serum of rats; assay type: in vivo, female Wistar rats
Description: 4 groups each containing 5 female Wistar rats were treated with placebo or three different doses (1 ng/kg, 5 ng/kg and 50 ng/kg) of buserelin. An initial blood sample was taken from all animals (initial value). Thereafter, the animals were given an injection of buserelin in physiological sodium chloride solution with the addition of 0.25% Haemaccel^R, and the placebo group was given the same amount of physiological sodium chloride solution with the addition of 0.25% Haemaccel^R. Blood samples were taken after 90 minutes and 240 minutes. The blood serum was investigated for parathyroid hormone. […] Explanation of the FIG. 1: The time course of the PTH level after i.v. administration of 1 ng/kg buserelin (curve 1), 5 ng/kg (curve 2) and 50 ng/kg (curve 3) is shown. […] All measurements are indicated with standard deviation (n=5).

CCNC(=O)[C@@H]1CCCN1C(=O)[C@H](CCCNC(=N)N)NC(=O)[C@H](CC(C)C)NC(=O)[C@@H](COC(C)(C)C)NC(=O)[C@H](Cc1ccc(O)cc1)NC(=O)[C@H](CO)NC(=O)[C@H](Cc1c[nH]c2ccccc12)NC(=O)[C@H](Cc1cnc[nH]1)NC(=O)[C@@H]1CCC(=O)N1 [buserelin, [D-Ser(Bu^t)^6]-gonadoliberin-(1-9)-nonapeptide ethylamide]
parathyroid hormone level previously reduced by infusion of calcium [1]: raised | parathyroid hormone in the plasma [2]: reduced | dose dependence of the parathyroid hormone lowering effect ([3]; 1, 5 and 50 ng/kg i.v., 90 minutes): best effect being observed at the low doses | level of parathyroid hormone in blood serum after 90 minutes ([3]; i.v. 1 ng/kg, 5 ng/kg and 50 ng/kg buserelin, female Wistar rats, 90 minutes, n=5): decreased | level of parathyroid hormone in blood serum after 240 minutes ([3]; i.v. 1, 5 and 50 ng/kg, 240 minutes): initial value had been regained
